From patent US20170349638A1, “COMPANION DIAGNOSTIC TOOL FOR PEPTIDOMIMETIC MACROCYCLES” (AILERON Therapeutics, Inc., priority 2016, published 2017) come the findings set out here.

Where two headings read alike, the source gives them in different places. Where a SMILES comes first, the peptide text is derived from it. Bridges are numbered along the chain shown (N, C = ends). [ ]: non-standard residue; d: D form. Phe(4-COOH) = N[C@@H](Cc1ccc(C(=O)O)cc1)C(=O)O; R8 = C=CCCCCCC[C@@](C)(N)C(=O)O; Cba = N[C@@H](CC1CCC1)C(=O)O; S5 = C=CCCC[C@](C)(N)C(=O)O

The test system of one series is SJSA-1 cells. Kind of series: Cell lysis by peptidomimetic macrocycles (LDH release). In kind it is cell-based. The note with it: 1 h incubation. In general terms: Release of lactate dehydrogenase indicates damage to the cell membrane.
Series [1] deals with MCF-7 breast cancer xenograft. Kind of series: MCF-7 breast cancer xenograft study. It counts as in vivo, female nude (Crl:NU-Foxn1nu) mice. To be noted: for mice died during treatment: 10 mice per group. Here is the method: A negative control stapled peptide. […] Slow release 90 day 0.72 mg 17β-estradiol pellets (Innovative Research, Sarasota, Fla.) were implanted subcutaneously (sc) on the nape of the neck one day prior to tumor cell implantation (Day −1). On Day 0, MCF-7 tumor cells were implanted sc in the flank of female nude (Crl:NU-Foxn1nu) mice. On Day 18, the resultant sc tumors were measured using calipers to determine their length and width and the mice were weighed. The tumor sizes were calculated using the formula (length×width^2)/2 and expressed as cubic millimeters (mm^3). Mice with tumors smaller than 85.3 mm^3 or larger than 417.4 mm^3 were excluded from the subsequent group formation. Thirteen groups of mice, 10 mice per group, were formed by randomization such that the group mean tumor sizes were essentially equivalent (mean of groups±standard deviation of groups=180.7±17.5 mm^3).
This formulation was prepared once for the duration of the study. This vehicle was used as the vehicle control in the subsequent study.
Each group was assigned to a different treatment regimen. Group 1, as the vehicle negative control group, received the vehicle administered at 8 mL/kg body weight intravenously (iv) three times per week from Days 18-39. […] Group 4 received 6.7 mg/kg SP249 as an iv injection three times per week. […] Group 9 received 30 mg/kg SP252 as an iv injection three times per week.
During the dosing period the mice were weighed and tumors measured 1-2 times per week.

The target of a further series is MDM2 (Homo sapiens, UniProt Q00987). The experiment in a line: Competitive fluorescence polarization assay for MDM2. In kind it is binding. On the technique in general: Fluorescence polarisation rises when a labelled molecule tumbles more slowly, as on binding a larger partner.
The target in another series is T1, MDMX (Homo sapiens, UniProt O15151).
T1 sequence (O15151 1-125): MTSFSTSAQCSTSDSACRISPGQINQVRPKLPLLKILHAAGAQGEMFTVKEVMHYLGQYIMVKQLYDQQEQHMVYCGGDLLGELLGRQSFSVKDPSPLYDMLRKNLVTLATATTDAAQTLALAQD
Kind of series: Competitive fluorescence polarization assay MDMX. In kind it is binding. To be noted: Table 26B; competitive FP.

Series [2] can be described thus: Circular dichroism (CD) analysis of alpha-helicity. In kind it is physicochemical. The note with it: 222 nm; for Molar Ellipticity 50% TFE (222 in 50% TFE): CD buffer with 50% TFE; for Molar Ellipticity 50% TFE (222 in 50% TFE) / Molar Ellipticity Benign (222 in 0% TFE): 0.05 mg/ml, 4° C.; for Molar Ellipticity Benign (222 in 0% TFE): benign CD buffer (20 mM phosphoric acid, pH 2); for Molar Ellipticity TFE − Molar Ellipticity Benign: difference 50% TFE minus benign buffer. In general terms: Circular dichroism is widely used to follow secondary structure.
Procedure: A Peltier temperature controller was used to maintain temperature control of the optical cell. Results are expressed as mean molar ellipticity [θ] […] Peptide concentrations were determined by amino acid analysis. Stock solutions of peptides were prepared in benign CD buffer (20 mM phosphoric acid, pH 2). The stocks were used to prepare peptide solutions of 0.05 mg/ml in either benign CD buffer or CD buffer with 50% trifluoroethanol (TFE) for analyses in a 10 mm pathlength cell. […] The average of six scans was reported.

[3] abbreviates: 30 mg/kg iv three times per week.
Where [4] appears, read: Table 26B, competitive FP, read-out: Ki (MDM2).

Sequence of MDM2 (Q00987 1-125): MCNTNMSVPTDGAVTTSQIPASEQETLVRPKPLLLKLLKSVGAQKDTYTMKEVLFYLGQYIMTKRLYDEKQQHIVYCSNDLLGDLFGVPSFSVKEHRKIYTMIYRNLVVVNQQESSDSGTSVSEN
Procedure for MDM2: Dilute 1 mM (in 100% DMSO) of FAM labeled linear peptide with DMSO to 100 μM (dilution 1:10). Then, dilute from 100 μM to 10 μM with water (dilution 1:10) and then dilute with FP buffer from 10 μM to 40 nM (dilution 1:250). This is the working solution which will be a 10 nM concentration in well (dilution 1:4). Keep the diluted FAM labeled peptide in the dark until use. • 4. […] Dilute 10 mM (in 100% DMSO) with DMSO to 5 mM (dilution 1:2). Then, dilute from 5 mM to 500 μM with H2O (dilution 1:10) and then dilute with FP buffer from 500 μM to 20 μM (dilution 1:25). […] Add 10 μl of 10 nM (4×) of FAM labeled peptide into each well and incubate for 3 hr to read.
Procedure for MDMX: Dilute MDMX (In-house, 40 kD) into FP buffer (High salt buffer—200 mM NaCl, 5 mM CHAPS, pH 7.5.) to make 300 nM (2×) working stock solution. • 2. Add 20 μl of 300 nM (2×) of protein stock solution into each well of 96-well black HE microplate (Molecular Devices) • 3. Dilute 1 mM (in 100% DMSO) of FAM labeled linear peptide with DMSO to 100 μM (dilution 1:10). Then, dilute from 100 μM to 10 μM with water (dilution 1:10) and then dilute with FP buffer from 10 μM to 40 nM (dilution 1:250). This is the working solution which will be a 10 nM concentration in well (dilution 1:4). Keep the diluted FAM labeled peptide in the dark until use. • 4. […] Dilute 10 mM (in 100% DMSO) with DMSO to 5 mM (dilution 1:2). Then, dilute from 5 mM to 500 μM with H2O (dilution 1:10) and then dilute with FP buffer from 500 μM to 20 μM (dilution 1:25). […] Transfer 10 μl of serial diluted unlabeled peptides to each well which is filled with 20 μl of 300 nM of protein. • 7. Add 10 μl of 10 nM (4×) of FAM labeled peptide into each well and incubate for 3 hr to read.
Procedure for SJSA-1 cells: On the day of the assay, media was exchanged with RPMI 1% FBS media, 90 μl of media per well.
10 mM stock solutions of the peptidomimetic macrocycles were prepared in 100% DMSO.
The negative control (non-lytic) sample was 0.5% DMSO alone and positive control (lytic) samples include 10 uM Melittin and 1% Triton X-100.
Cell plates were incubated for 1 hour at 37° C. After the 1 hour incubation, the morphology of the cells is examined by microscope and then the plates were centrifuged at 1200 rpm for 5 minutes at room temperature. 40 μl of supernatant for each peptidomimetic macrocyle and control sample is transferred to clear assay plates.

Turning to “413 (LTFAXYWAQLAAALA; not fully specified; Ac, NH2, staple, Cou4, Nle; N-term Ac; MOD_RES (4)..(4): Alpha-Me R-azide 1,4 triazole (6 carbon) alanine olefin amino acid connected by an all-carbon crosslinker comprising one double bond; misc_feature (4)..(11): Crosslink between residues; MOD_RES () [compound 413]”, in the series with SJSA-1 cells, the “6.25 uM % Lysed cells (1 h LDH)” value is 5%, the “25 uM % Lysed cells (1 h LDH)” value is given as 3% and the “50 uM % Lysed cells (1 h LDH)” value is on record as 3%.

For “414 (LTFAXYWAQLAAALA; not fully specified; Ac, NH2, staple, Cou4, Nle; N-term Ac; MOD_RES (4)..(4): Alpha-Me R-azide 1,4 triazole (6 carbon) alanine olefin amino acid connected by an all-carbon crosslinker comprising one double bond; misc_feature (4)..(11): Crosslink between residues; MOD_RES () [compound 414]”, in the series on SJSA-1 cells, the “6.25 uM % Lysed cells (1 h LDH)” value was 3%, the “25 uM % Lysed cells (1 h LDH)” value was 2% and the “50 uM % Lysed cells (1 h LDH)” value was determined as 2%.

With `CC(=O)N[C@@H](CC(C)C)C(=O)N[C@H](C(=O)N[C@@H](Cc1ccccc1)C(=O)N[C@]1(C)CCCCCCC=CCCC[C@@](C)(C(=O)N[C@@H](CO)C(=O)N[C@@H](C)C(=O)N[C@@H](C)C(N)=O)NC(=O)[C@H](CC2CCC2)NC(=O)[C@H](CCC(N)=O)NC(=O)[C@H](C)NC(=O)[C@H](Cc2c[nH]c3ccccc23)NC(=O)[C@H](Cc2ccc(O)cc2)NC(=O)[C@H](CCC(=O)O)NC1=O)[C@@H](C)O` [SP154], in series [1] (30 mg/kg 3x/wk iv, mice), the “% BW Change” value is “+5.7%”, the “No. with ≧10% BW Loss” value is 0/10 and the “No. with ≧20% BW Loss or death” value is listed as 0/10. Further, in series [1] (setting [3]), the “tolerability of dosing regimen” value is on record as “well-tolerated”. Besides, in series [1] (40 mg/kg 2x/wk iv, mice), the “No. with ≧10% BW Loss” value is reported as 0/10 and the “No. with ≧20% BW Loss or death” value is listed as 2/10. In series [1] (40 mg/kg iv twice a week), the “tolerability of dosing regimen” value is listed as “not tolerable” and the “mice died during treatment” value was 2 mice.

For `CC[C@H](C)[C@H](NC(=O)[C@H](C)NC(=O)[C@H](C)NC(=O)[C@]1(C)CCCC=CCCCCCC[C@@](C)(NC(=O)[C@H](Cc2ccccc2)NC(=O)[C@@H](NC(=O)[C@H](CC(C)C)NC(C)=O)[C@@H](C)O)C(=O)N[C@@H](CCC(=O)O)C(=O)N[C@@H](Cc2ccc(C(=O)O)cc2)C(=O)N[C@@H](Cc2c[nH]c3ccccc23)C(=O)N[C@@H](C)C(=O)N[C@@H](CCC(N)=O)C(=O)N[C@@H](CC2CCC2)C(=O)N1)C(=O)N[C@H](C)C(N)=O` [SP249] (Ac-LTF[R8]E[Phe(4-COOH)]WAQ[Cba][S5]AAI[dA]-NH2; staple 4-11), in series [1] ([…] iv three times per week), the “mice died during treatment” value is recorded as 4 mice.

`CC(=O)N[C@@H](CC(C)C)C(=O)N[C@H](C(=O)N[C@@H](C)C(=O)N[C@]1(C)CCCCCCC=CCCC[C@@](C)(C(=O)N[C@@H](CO)C(=O)N[C@@H](C)C(=O)N[C@@H](C)C(N)=O)NC(=O)[C@H](CC2CCC2)NC(=O)[C@H](CCC(N)=O)NC(=O)[C@H](C)NC(=O)[C@H](Cc2c[nH]c3ccccc23)NC(=O)[C@H](Cc2ccc(O)cc2)NC(=O)[C@H](CCC(=O)O)NC1=O)[C@@H](C)O` [SP252]: the “body weight loss or deaths” value in series [1] (setting [3]) is listed as “no body weight loss or deaths noted”.

By IC50 is commonly meant the concentration that gives 50% inhibition. Lower therefore signals greater potency. Broadly, the Ki is the dissociation constant of the complex between target and ligand, obtained from inhibition or displacement. Consider `CCCC[C@H](NC(=O)[C@H](C)NC(=O)[C@H](C)NC(=O)[C@]1(C)CCCc2cn(nn2)CCCCCC[C@@](C)(NC(=O)[C@H](Cc2ccccc2)NC(=O)[C@@H](NC(=O)[C@H](CC(C)C)NC(C)=O)[C@@H](C)O)C(=O)N[C@@H](C)C(=O)N[C@@H](Cc2ccc(O)cc2)C(=O)N[C@@H](Cc2c[nH]c3ccccc23)C(=O)N[C@@H](C)C(=O)N[C@@H](CCC(N)=O)C(=O)N[C@@H](CC(C)C)C(=O)N1)C(=O)N[C@@H](C)C(N)=O` [SP449, Ac-LTF$4rn6AYWAQL$4a5AANleA-NH2], for which the concentration for half-maximal inhibition (IC50) was less than 10 nM at MDM2 (Table 26B, competitive FP) and less than 10 nM at MDMX. Besides, the inhibition constant (Ki) at MDM2 (setting [4]) and at MDMX was less than 10 nM throughout.

On to `CC(=O)N[C@@H](CC(C)C)C(=O)N[C@H](C(=O)N[C@@H](Cc1ccccc1)C(=O)N[C@]1(C)CCCCCCn2cc(nn2)CCC[C@@](C)(C(=O)N[C@@H](C)C(=O)N[C@@H](C)C(=O)N[C@@H](C)C(=O)N[C@@H](C)C(=O)N[C@@H](C)C(=O)N[C@H](C)C(N)=O)NC(=O)[C@H](CC(C)C)NC(=O)[C@H](CCC(N)=O)NC(=O)[C@H](C)NC(=O)[C@H](Cc2c[nH]c3ccccc23)NC(=O)[C@H](Cc2ccc(O)cc2)NC(=O)[C@H](C)NC1=O)[C@@H](C)O` [SP450, Ac-LTF$4rn6AYWAQL$4a5AAAAAa-NH2], for which the Ki on MDM2 is 100 to 1000 nM.

With `CC(=O)N[C@@H](CC(C)C)C(=O)N[C@H](C(=O)N[C@@H](Cc1ccccc1)C(=O)N[C@]1(C)CCCCCCn2cc(nn2)CCC[C@@](C)(C(=O)N[C@@H](C)C(=O)N[C@@H](C)C(=O)N[C@@H](C)C(=O)N[C@@H](C)C(=O)N[C@@H](C)C(=O)N[C@H](C)C(N)=O)NC(=O)[C@H](CC(C)C)NC(=O)[C@H](CCC(N)=O)NC(=O)[C@H](C)NC(=O)[C@H](Cc2c[nH]c3ccccc23)NC(=O)[C@H](Cc2ccc(O)cc2)NC(=O)[C@H](CCC(=O)O)NC1=O)[C@@H](C)O` [SP451, Ac-LTF$4rn6EYWAQL$4a5AAAAAa-NH2], on MDM2, the inhibitory constant (Ki) is 10 to 100 nM.

With `CC(=O)N[C@@H](CC(C)C)C(=O)N[C@H](C(=O)N[C@@H](Cc1ccccc1)C(=O)N[C@]1(C)CCCCCCn2nncc2CCC[C@@](C)(C(=O)N[C@@H](CO)C(=O)N[C@@H](C)C(=O)N[C@@H](C)C(N)=O)NC(=O)[C@H](CC2CCC2)NC(=O)[C@H](CCC(N)=O)NC(=O)[C@H](C)NC(=O)[C@H](Cc2c[nH]c3ccccc23)NC(=O)[C@H](Cc2ccc(O)cc2)NC(=O)[C@H](CCC(=O)O)NC1=O)[C@@H](C)O` [SP456, Ac-LTF$5rn6EYWAQCba$5a5SAA-NH2], the inhibition constant (Ki) is less than 10 nM at MDM2 (setting [4]) and 10 to 100 nM at MDMX.

With `CC(=O)N[C@@H](CC(C)C)C(=O)N[C@H](C(=O)N[C@@H](Cc1ccccc1)C(=O)N[C@]1(C)CCCCCCn2nnc(c2I)CCC[C@@](C)(C(=O)N[C@@H](CO)C(=O)N[C@@H](C)C(=O)N[C@@H](C)C(N)=O)NC(=O)[C@H](CC2CCC2)NC(=O)[C@H](CCC(N)=O)NC(=O)[C@H](C)NC(=O)[C@H](Cc2c[nH]c3ccccc23)NC(=O)[C@H](Cc2ccc(O)cc2)NC(=O)[C@H](CCC(=O)O)NC1=O)[C@@H](C)O` [SP457, Ac-LTF$4rn6EYWAQCba5I-$4a5SAA-NH2], the Ki at MDM2 (setting [4]) and on MDMX was less than 10 nM in each case.

`CCCC[C@H](NC(=O)[C@H](C)NC(=O)[C@H](C)NC(=O)[C@]1(C)CCC/C=C/CCCCCC[C@@](C)(NC(=O)[C@H](Cc2ccccc2)NC(=O)[C@@H](NC(=O)[C@H](CC(C)C)NC(C)=O)[C@@H](C)O)C(=O)N[C@@H](C)C(=O)N[C@@H](Cc2ccc(O)cc2)C(=O)N[C@@H](Cc2c[nH]c3ccccc23)C(=O)N[C@@H](C)C(=O)N[C@@H](CCC(N)=O)C(=O)N[C@@H](CC(C)C)C(=O)N1)C(=O)N[C@@H](C)C(N)=O` [compound 69]: in series [2], the “Molar Ellipticity 50% TFE (222 in 50% TFE)” value (from here on “Molar Ellipticity 50% TFE”) was −21509.7 deg cm^2dmol^−1 and the “Molar Ellipticity Benign (222 in 0% TFE)” value was −102.6 deg cm^2dmol^−1.

`CC[C@H](C)[C@H](NC(=O)[C@H](C)NC(=O)[C@H](C)NC(=O)[C@]1(C)CCC/C=C/CCCCCC[C@@](C)(NC(=O)[C@H](Cc2ccccc2)NC(=O)[C@@H](NC(=O)[C@H](CC(C)C)NC(C)=O)[C@@H](C)O)C(=O)N[C@@H](C)C(=O)N[C@@H](Cc2ccc(O)cc2)C(=O)N[C@@H](Cc2c[nH]c3ccccc23)C(=O)N[C@@H](C)C(=O)N[C@@H](CCC(N)=O)C(=O)N[C@@H](CC(C)C)C(=O)N1)C(=O)N[C@H](C)C(N)=O` [compound 71]: in series [2], the “Molar Ellipticity 50% TFE” value is on record as −17957 deg cm^2dmol^−1, the “Molar Ellipticity Benign (222 in 0% TFE)” value was −121.2 deg cm^2dmol^−1 and the “Molar Ellipticity TFE − Molar Ellipticity Benign” value was −17835.9 deg cm^2dmol^−1.

Consider `CC(=O)N[C@@H](CC(C)C)C(=O)N[C@H](C(=O)N[C@@H](Cc1ccccc1)C(=O)N[C@]1(C)CCCCCCC=CCCC[C@@](C)(C(=O)N[C@@H](C)C(=O)N[C@@H](C)C(=O)N[C@@H](C)C(=O)N[C@@H](C)C(=O)N[C@H](C)C(N)=O)NC(=O)[C@H](CC(C)C)NC(=O)[C@H](CCC(N)=O)NC(=O)[C@H](C)NC(=O)[C@H](Cc2c[nH]c3ccccc23)NC(=O)[C@H](Cc2ccc(O)cc2)NC(=O)[C@H](C)NC1=O)[C@@H](C)O` [compound 233], for which, in series [2], the “Molar Ellipticity 50% TFE” value is given as −19032.6 deg cm^2dmol^−1, the “Molar Ellipticity Benign (222 in 0% TFE)” value is −477.9 deg cm^2dmol^−1 and the “Molar Ellipticity TFE − Molar Ellipticity Benign” value is given as −18554.7 deg cm^2dmol^−1.
